Test results from PubChem BioAssay AID192 (DTP/NCI, 2004).
“And” between values parts separate entries of the source, which are not always exact repeats. Equal values may be shown once. Toxic doses and inconclusive results are not listed. How the source made its calls: active means survival T/C of 150% or more; inactive means T/C below 125% in these data.

Tested on: BDF1 mice, B16 melanoma ip, median survival T/C
Test: NCI In Vivo Anticancer Drug Screen. Data for tumor model B16 Melanoma (intraperitoneal) in B6D2F1 (BDF1) mice
Conditions: endpoint: median survival time, higher = longer survival
Method in brief: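 Transplantable tumor model; survival or tumor size measured; reported as T/C, treated over vehicle control.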

[1] = dose: 6.25 mg/kg/injection, schedule: Q01DX009 (ip), vehicle: Klucel (hydroxypropylcellulose) (HPC)
[2] = dose: 12.5 mg/kg/injection, schedule: Q01DX009 (ip), vehicle: Klucel (hydroxypropylcellulose) (HPC)
[3] = dose: 25.0 mg/kg/injection, schedule: Q01DX009 (ip), vehicle: saline with Tween-80
[4] = dose: 12.5 mg/kg/injection, schedule: Q01DX009 (ip), vehicle: saline with Tween-80
[5] = dose: 50.0 mg/kg/injection, schedule: Q01DX009 (ip), vehicle: saline with Tween-80
[6] = dose: 100.0 mg/kg/injection, schedule: Q01DX009 (ip), vehicle: saline with Tween-80
[7] = dose: 200.0 mg/kg/injection, schedule: Q01DX009 (ip), vehicle: saline with Tween-80
[8] = dose: 6.25 mg/kg/injection, schedule: Q01DX009 (ip), vehicle: saline with Tween-80
[9] = dose: 25.0 mg/kg/injection, schedule: Q01DX009 (ip), vehicle: Klucel (hydroxypropylcellulose) (HPC)
[10] = dose: 100.0 mg/kg/injection, schedule: Q01DX009 (ip), vehicle: Klucel (hydroxypropylcellulose) (HPC)
[11] = dose: 200.0 mg/kg/injection, schedule: Q01DX009 (ip), vehicle: Klucel (hydroxypropylcellulose) (HPC)
[12] = dose: 6.25 mg/kg/injection, schedule: Q01DX009 (ip), vehicle: saline
[13] = dose: 25.0 mg/kg/injection, schedule: Q01DX009 (ip), vehicle: saline
[14] = dose: 50.0 mg/kg/injection, schedule: Q01DX009 (ip), vehicle: saline

Measured: T/C

O=C(O)C(O)C(O)C(O)C(O)C(=O)O (centres undefined)
inactive: dose: 300.0 mg/kg/injection, schedule: Q01DX009 (ip), vehicle: Klucel (hydroxypropylcellulose) (HPC) 100 % of control | dose: 600.0 mg/kg/injection, schedule: Q01DX009 (ip), vehicle: Klucel (hydroxypropylcellulose) (HPC) 93 % of control | dose: 900.0 mg/kg/injection, schedule: Q01DX009 (ip), vehicle: Klucel (hydroxypropylcellulose) (HPC) 91 % of control

CC(=O)O[C@@H]1CO[C@H]2O[C@H]3[C@@H](C(C=O)=C[C@H](O)[C@@H]4C5=C(C(C)C)CC[C@]5(C)CC[C@@]34C)[C@@]2(O)C1=O
inactive: dose: 0.75 mg/kg/injection, schedule: Q01DX009 (ip), vehicle: Klucel (hydroxypropylcellulose) (HPC) 94 % of control | dose: 3.12 mg/kg/injection, schedule: Q01DX009 (ip), vehicle: Klucel (hydroxypropylcellulose) (HPC) 100 % of control | [1] 89 % of control | [2] 86 % of control

CN1CCN=C1c1ccc(NC(=O)c2ccc(C(=O)Nc3ccc(C4=NCCN4C)cc3)c(N)c2)cc1
inactive: dose: 1.25 mg/kg/injection, schedule: Q01DX009 (ip), vehicle: saline 115 % of control | dose: 1.25 mg/kg/injection, schedule: Q04DX003 (ip), vehicle: saline 89 % of control | dose: 2.5 mg/kg/injection, schedule: Q01DX009 (ip), vehicle: saline 117 % of control | dose: 2.5 mg/kg/injection, schedule: Q04DX003 (ip), vehicle: saline 94 % of control | dose: 5.0 mg/kg/injection, schedule: Q01DX009 (ip), vehicle: saline 115 % of control | dose: 5.0 mg/kg/injection, schedule: Q04DX003 (ip), vehicle: saline 100 % of control

CC1=CC(=O)c2ccccc2C1=O
inactive: [3] 108 % of control and 118 % of control

COc1cc2c(c(OC)c1OC)-c1c(cc3c(c1OC)OCO3)CC(C)C(C)(O)C2OC(=O)c1ccccc1 (centres undefined)
inactive: dose: 11.25 mg/kg/injection, schedule: Q01DX009 (ip), vehicle: saline + Tween-80 + alcohol 106 % of control | dose: 22.5 mg/kg/injection, schedule: Q01DX009 (ip), vehicle: saline + Tween-80 + alcohol 97 % of control | dose: 45.0 mg/kg/injection, schedule: Q01DX009 (ip), vehicle: saline + Tween-80 + alcohol 97 % of control | dose: 90.0 mg/kg/injection, schedule: Q01DX009 (ip), vehicle: saline + Tween-80 + alcohol 91 % of control

ClC1CCC[N-]C1.ClC1CCC[N-]C1.O=C(O)CC(=O)O.[Pt+2] (centres undefined)
inactive: [4] 96 % of control | [3] 95 % of control | [5] 94 % of control | [6] 93 % of control | [7] 89 % of control

O=C(NCCO)Nc1ccc(Cl)c(Cl)c1
inactive: dose: 90.0 mg/kg/injection, schedule: Q01DX009 (ip), vehicle: other 102 % of control | dose: 100.0 mg/kg/injection, schedule: Q01DX009 (ip), vehicle: other 100 % of control | dose: 200.0 mg/kg/injection, schedule: Q01DX009 (ip), vehicle: other 94 % of control | dose: 300.0 mg/kg/injection, schedule: Q01DX009 (ip), vehicle: other 87 % of control | dose: 400.0 mg/kg/injection, schedule: Q01DX009 (ip), vehicle: other 90 % of control

COc1ccccc1NC(=O)Nc1ccc(Nc2ccccc2)cc1
inactive: dose: 100.0 mg/kg/injection, schedule: Q01DX009 (ip), vehicle: gum acacia 109 % of control | dose: 200.0 mg/kg/injection, schedule: Q01DX009 (ip), vehicle: gum acacia 97 % of control

c1ccc2c(c1)nnn1c3cnccc3nc21
inactive: dose: 1.56 mg/kg/injection, schedule: Q01DX009 (ip), vehicle: saline with Tween-80 110 % of control | dose: 3.12 mg/kg/injection, schedule: Q01DX009 (ip), vehicle: saline with Tween-80 97 % of control and 111 % of control | [8] 93 % of control and 107 % of control | [4] 106 % of control and 121 % of control

C[C@H]1C[C@@H]2[C@H]([C@@H](O)C[C@@]3(C)[C@H]2CC[C@]3(O)C(=O)CO)[C@@]2(C)C=CC(=O)C=C12
inactive: [1] 115 % of control | [2] 115 % of control | [9] 117 % of control | [10] 116 % of control | [11] 112 % of control

O=C(O)C(=O)O
inactive: [12] 101 % of control | dose: 12.5 mg/kg/injection, schedule: Q01DX009 (ip), vehicle: saline 105 % of control | [13] 96 % of control and 108 % of control | [14] 95 % of control

CC(C)CNc1ccc(S(=O)(=O)c2ccc(NCC(C)C)c([N+](=O)[O-])c2)cc1[N+](=O)[O-]
inactive: dose: 3.13 mg/kg/injection, schedule: Q01DX009 (ip), vehicle: saline with Tween-80 100 % of control | [8] 93 % of control | [12] 93 % of control | [4] 89 % of control | [13] 88 % of control

CC1CC(NC(=S)S)CC(C)(C)C1 (centres undefined)
inactive: dose: 0.25 mg/kg/injection, schedule: Q01DX009 (ip), vehicle: Klucel (hydroxypropylcellulose) (HPC) 96 % of control | dose: 0.5 mg/kg/injection, schedule: Q01DX009 (ip), vehicle: Klucel (hydroxypropylcellulose) (HPC) 96 % of control | dose: 1.0 mg/kg/injection, schedule: Q01DX009 (ip), vehicle: Klucel (hydroxypropylcellulose) (HPC) 100 % of control

CN1NCc2cncnc21
inactive: [5] 107 % of control | [6] 101 % of control | [7] 97 % of control

CCO/C=C1\SC(=S)N(c2ccc(OCC)cc2)C1=O
inactive: [11] 92 % of control

CCN(CC)CCN(C)C
inactive: [14] 118 % of control | dose: 100.0 mg/kg/injection, schedule: Q01DX009 (ip), vehicle: saline 112 % of control | dose: 200.0 mg/kg/injection, schedule: Q01DX009 (ip), vehicle: saline 103 % of control

CC1(C)N=C(N)N=C(N)N1c1cc(Cl)c(Cl)cc1Cl
inactive: [2] 94 % of control | [9] 99 % of control

NC(=O)c1cn(C2OC(CO)C(O)C2O)c2ncnc(N)c12 (centres undefined)
inactive: dose: 0.09 mg/kg/injection, schedule: Q01DX009 (ip), vehicle: saline 100 % of control | dose: 0.12 mg/kg/injection, schedule: Q01DX009 (ip), vehicle: water 93 % of control | dose: 0.13 mg/kg/injection, schedule: Q01DX009 (ip), vehicle: saline 97 % of control | dose: 0.19 mg/kg/injection, schedule: Q01DX009 (ip), vehicle: saline 105 % of control | dose: 0.25 mg/kg/injection, schedule: Q01DX009 (ip), vehicle: saline 102 % of control | dose: 0.25 mg/kg/injection, schedule: Q01DX009 (ip), vehicle: water 106 % of control | dose: 0.38 mg/kg/injection, schedule: Q01DX009 (ip), vehicle: saline 105 % of control | dose: 0.5 mg/kg/injection, schedule: Q01DX009 (ip), vehicle: saline 102 % of control | dose: 0.75 mg/kg/injection, schedule: Q01DX009 (ip), vehicle: saline 114 % of control

N#CCCN(CCC#N)/N=N\c1nc[nH]c1C(N)=O
inactive: [5] 89 % of control | [6] 100 % of control | [7] 100 % of control | dose: 400.0 mg/kg/injection, schedule: Q01DX009 (ip), vehicle: saline with Tween-80 100 % of control

CN(C)N=Nc1ccc(NC(N)=O)cc1
inactive: dose: 18.75 mg/kg/injection, schedule: Q01DX009 (ip), vehicle: Klucel (hydroxypropylcellulose) (HPC) 123 % of control | dose: 37.5 mg/kg/injection, schedule: Q01DX009 (ip), vehicle: Klucel (hydroxypropylcellulose) (HPC) 86 % of control

O=C(O)c1cccnc1
inactive: [2] 112 % of control | [9] 105 % of control | dose: 50.0 mg/kg/injection, schedule: Q01DX009 (ip), vehicle: Klucel (hydroxypropylcellulose) (HPC) 97 % of control | [10] 100 % of control

CCCCCCCCCCCCCCCCOc1ccc(C(=O)CC(=O)OC)cc1
inactive: [10] 105 % of control | [11] 94 % of control

Cn1cnc([N+](=O)[O-])c1Sc1nc(N)nc2c1ncn2C1OC(CO)C(O)C1O (centres undefined)
inactive: dose: 12.5 mg/kg/injection, schedule: Q01DX009 (ip), vehicle: suspension in saline 91 % of control

CCCCCCCCN(C)/N=N/c1nc[nH]c1C(N)=O
inactive: dose: 37.5 mg/kg/injection, schedule: Q01DX009 (ip), vehicle: saline with Tween-80 121 % of control | dose: 75.0 mg/kg/injection, schedule: Q01DX009 (ip), vehicle: saline with Tween-80 123 % of control
